Earlier results on two compounds are cited in US20250288728A1, “SYSTEMS AND METHODS FOR GEL-BASED NEUROMODULATION” (Tulavi Therapeutics, Inc., priority 2018, published 2025).

For data set [1], the system named is sympathetic ganglia. The conditions noted are these: in vitro; 4 μg/ml (10 uM); within 36 hours.
The subject of data set [2] is TRPV1 expressing cardiac nerve endings. The following applies: 50 μg/ml RTX (10% ethanol in 10% Tween 80/isotonic saline) painted twice on right and left ventricles.

For Cholesterol oxides, in data set [1], the “sympathetic ganglia cell death” value is listed as “rapid cell sympathetic ganglia cell death”.
Take `C=C(C)[C@]12C[C@@H](C)[C@@]34O[C@](Cc5ccccc5)(O[C@@H]1[C@@H]3C=C(COC(=O)Cc1ccc(O)c(OC)c1)C[C@]1(O)C(=O)C(C)=C[C@@H]41)O2` [RTX, resiniferatoxin]: the “duration of complete ablation of TRPV1 expressing cardiac nerve endings” value in data set [2] was “over 10 weeks”.
